What follows are compounds tested against T1, APOL1 (Homo sapiens, UniProt O14791) (assay: MultiTox-Fluor Multiplex Cytotoxicity Assay in tet-inducible APOL1 T-REx-HEK293 cells (cell rescue, ratio of dead to live cells)). Conditions: tet-inducible transgenic APOL1 T-REx-HEK293 cell lines, 50 ng/mL tet, 24 hours; read-out: IP50 (i.e., IC50 for cell proliferation).
T1 sequence (O14791 1-398 S342G/I384M): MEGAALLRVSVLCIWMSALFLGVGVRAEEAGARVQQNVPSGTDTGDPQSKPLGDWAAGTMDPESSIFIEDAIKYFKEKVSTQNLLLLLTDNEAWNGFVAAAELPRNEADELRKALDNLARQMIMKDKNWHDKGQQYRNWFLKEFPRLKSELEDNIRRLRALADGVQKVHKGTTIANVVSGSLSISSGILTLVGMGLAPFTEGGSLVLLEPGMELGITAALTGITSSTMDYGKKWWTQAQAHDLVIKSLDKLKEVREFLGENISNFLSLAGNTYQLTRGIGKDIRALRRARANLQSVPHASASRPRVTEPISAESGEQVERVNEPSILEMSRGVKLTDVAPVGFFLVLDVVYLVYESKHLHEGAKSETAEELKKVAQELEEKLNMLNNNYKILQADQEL
Format: cell-based
Procedure, shortened: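 T-REx-HEK293 cells with tet-inducible APOL1 were treated with compound (10 μM top, 10-point 3-fold dilution, duplicate) plus 50 ng/mL tetracycline for 24 h at 37° C, in DMEM with 2% tet-free FBS. MultiTox-Fluor protease signals gave a dead/live ratio, normalized to no tet (100% viability) and tet alone (0%).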

First: CCc1cc2c(s1)CCO[C@@]21CCN(C2COCC2O)[C@@H](C)C1 (stereo partly drawn) [Compound 232, 4-[(2′S,4R)-2-ethyl-2′-methyl-spiro[6,7-dihydrothieno[3,2-c]pyran-4,4′-piperidine]-1′-yl]tetrahydrofuran-3-ol]
Second: CCc1cc2c(s1)CCO[C@@]21CCN([C@H]2C[C@@H](NC(=O)OC(C)(C)C)C2)[C@@H](C)C1 [Compound 298]
The IC50 of the first is lower: less than 100 nM for the first, 500 to 1000 nM for the second. The first is the more potent here.

`C[C@H]1C[C@@]2(CCN1Cc1cnn(C[C@H](O)CO)c1)OC[C@@H](O)c1cc(C(F)(F)F)sc12` [Compound 968] and `C[C@H]1C[C@@]2(CCN1Cc1cnn(C3CN(S(C)(=O)=O)C3)c1)OC[C@@H](O)c1cc(C(F)(F)F)sc12` [Compound 884] cannot be ordered by IC50: less than 100 nM for the first, less than 100 nM for the second.

First: C[C@H]1C[C@@]2(CCN1Cc1cnn(CCO)c1)OCCc1cc(Cl)sc12 [Compound 632]
Second: COCc1cc2c(s1)[C@]1(CCN(Cc3cnn(CCS(C)(=O)=O)c3)[C@@H](C)C1)OCC2 [Compound 1017, (2′S, 7R)-2-(methoxymethyl)-2′-methyl-1′-[[1-(2-methylsulfonylethyl)pyrazol-4-yl]methyl]spiro[4,5-dihydrothieno[2,3-c]pyran-7,4′-piperidine]]
The IC50 of the first is lower: less than 100 nM for the first, 100 to 500 nM for the second. The first is the more potent here.

First: CCc1cc2c(s1)C(CC)COC21CCN(Cc2cn(CCS(C)(=O)=O)nn2)CC1 (stereo not drawn) [Compound 1182, 2,7-diethyl-1′-[[1-(2-methylsulfonylethyl)triazol-4-yl]methyl]spiro[6,7-dihydrothieno[3,2-c]pyran-4,4′-piperidine]]
Second: CCc1cc2c(s1)CCO[C@@]21CCN(Cc2cn(CS(=O)(=O)CC)nn2)[C@@H](C)C1 [Compound 14, (2′S)-2-ethyl-1′-[[1-(ethylsulfonylmethyl)triazol-4-yl]methyl]-2′-methyl-spiro[6,7-dihydrothieno[3,2-c]pyran-4,4′-piperidine]]
The IC50 of the first is higher: 500 to 1000 nM for the first, 100 to 500 nM for the second. The second is the more potent here.

`Cc1ccc(CN2CC[C@]3(C[C@@H]2C)OCCc2c3sc(Cl)c2CO)c(C)n1` [Compound 732] and `Cc1ncccc1CN1CC[C@]2(C[C@@H]1C)OCCc1c2sc(Cl)c1CO` [Compound 736] fall in the same range of IC50: 500 to 1000 nM for the first, 500 to 1000 nM for the second.

`C[C@H]1C[C@@]2(CCN1Cc1cnn(C[C@H](O)C(C)(C)O)c1)OCCc1c2sc(C(F)(F)F)c1CO` [Compound 887, (2S)-1-[4-[[(2′S, 7R)-3-(hydroxymethyl)-2′-methyl-2-(trifluoromethyl)spiro[4,5-dihydrothieno[2,3-c]pyran-7,4′-piperidine]-1′-yl]methyl]pyrazol-1-yl]-3-methyl-butane-2,3-diol] and `C[C@H]1C[C@@]2(CCN1Cc1cnn(CC(O)C3(O)COC3)c1)OCCc1c2sc(C(F)(F)F)c1CO` (stereo partly drawn) [Compound 933] cannot be ordered by IC50: less than 100 nM for the first, less than 100 nM for the second.

Compared with `CCc1cc2c(s1)CCO[C@@]21CCN(Cc2cn(CC3(CO)CCOC3)nn2)[C@@H](C)C1` (stereo partly drawn) [Compound 106], `CCc1cc2c(s1)CCO[C@@]21CCN(Cc2cn(Cc3cnoc3)nn2)[C@@H](C)C1` [Compound 45] is lower in IC50: 100 to 500 nM for the first, less than 100 nM for the second.

First: CC(O)Cn1cc(CN2CC[C@]3(C[C@@H]2C)OCCc2cc(CC(F)F)sc23)nn1 (stereo partly drawn) [Compound 543, 1-[4-[[(2′S, 7R)-2-(2,2-difluoroethyl)-2′-methyl-spiro[4,5-dihydrothieno[2,3-c]pyran-7,4′-piperidine]-1′-yl]methyl]triazol-1-yl]propan-2-ol]
Second: C[C@H]1C[C@@]2(CCN1Cc1cncn1C)OCCc1cc(CC(F)F)sc12 [Compound 587]
The IC50 of the first is lower: less than 100 nM for the first, 100 to 500 nM for the second.

First: CCc1cc2c(s1)CCO[C@@]21CCN(C[C@H]2C[C@@H](NC(=O)C3CCOC(C)(C)C3)C2)[C@@H](C)C1 (stereo partly drawn) [Compound 315]
Second: CCc1cc2c(s1)CCO[C@@]21CCN(C[C@H]2C[C@@H](NC(=O)C(C)(C)N)C2)[C@@H](C)C1 [Compound 360]
The IC50 of the first is lower: less than 100 nM for the first, 100 to 500 nM for the second. The first is the more potent here.

First: CCc1cc2c(s1)CCO[C@@]21CCN(CC2CN(S(=O)(=O)CCO)C2)[C@@H](C)C1 [Compound 492]
Second: CCc1cc2c(s1)CCO[C@@]21CCN(CC2CN(S(=O)(=O)c3cnn4c3OCCC4)C2)[C@@H](C)C1 [Compound 495]
The IC50 of the first is lower: 100 to 500 nM for the first, 500 to 1000 nM for the second. The first is the more potent here.

`CCc1cc2c(s1)CCO[C@@]21CCN(Cc2ccc(N[C@H]3CC[C@H](O)C3)nc2)[C@@H](C)C1` [Compound 205] and `CCc1cc2c(s1)CCO[C@@]21CCN(Cc2cnc(N[C@H]3CCC[C@H]3CO)nc2)[C@@H](C)C1` [Compound 219] cannot be ordered by IC50: less than 100 nM for the first, less than 100 nM for the second.

First: CCc1cc2c(s1)CCOC21CCN(Cc2ccc(NS(=O)(=O)CCCO)cc2)CC1 [Compound 1159, N-(4-((2′-ethyl-6′,7′-dihydrospiro[piperidine-4,4′-thieno[3,2-c]pyran]-1-yl)methyl)phenyl)-3-hydroxypropane-1-sulfonamide]
Second: CCc1cc2c(s1)CCOC21CCN(Cc2ccc(S(C)(=O)=O)cc2F)CC1 [Compound 1154]
The IC50 of the first is lower: less than 100 nM for the first, 500 to 1000 nM for the second. The first is the more potent here.

First: C[C@H]1C[C@@]2(CCN1CC(O)C(F)(F)F)OCCc1cc(CC(F)F)sc12 (stereo partly drawn) [Compound 601]
Second: C[C@H]1C[C@@]2(CCN1CC(=O)N(C)C)OCCc1cc(CC(F)F)sc12 [Compound 624]
The IC50 of the first is lower: less than 100 nM for the first, 500 to 1000 nM for the second. The first is the more potent here.

`COc1cc(OCC(N)=O)ccc1CN1CC[C@]2(C[C@@H]1C)OCCc1c2sc(Cl)c1CO` [Compound 716] and `C[C@H]1C[C@@]2(CCN1Cc1cnn(CC3CCOCC3)c1)OCCc1c2sc(Cl)c1CO` [Compound 761] fall in the same range of IC50: 100 to 500 nM for the first, 100 to 500 nM for the second.

`C[C@H]1C[C@@]2(CCN1Cc1ccc(S(C)(=O)=O)cc1)OC[C@H](O)c1cc(Cl)sc12` [Compound 802] and `Cc1cncc(CN2CC[C@]3(C[C@@H]2C)OC[C@H](O)c2cc(Cl)sc23)c1` [Compound 809] fall in the same range of IC50: 100 to 500 nM for the first, 100 to 500 nM for the second.

First: CCc1cc2c(s1)CCO[C@@]21CCN(Cc2cn(CCS(=O)(=O)NCCO)nn2)[C@@H](C)C1 [Compound 6, 2-[4-[[(2′S,4R)-2-ethyl-2′-methyl-spiro[6,7-dihydrothieno[3,2-c]pyran-4,4′-piperidine]-1′-yl]methyl]triazol-1-yl]-N-(2-hydroxyethyl)ethanesulfonamide]
Second: C[C@H]1C[C@@]2(CCN1Cc1cn(CCS(C)(=O)=O)nn1)OCCc1cc(CO)sc12 [Compound 1019, [(2′S, 7R)-2′-methyl-1′-[[1-(2-methylsulfonylethyl)triazol-4-yl]methyl]spiro[4,5-dihydrothieno[2,3-c]pyran-7,4′-piperidine]-2-yl]methanol]
The IC50 of the first is lower: less than 100 nM for the first, 500 to 1000 nM for the second. The first is the more potent here.

`CCc1cc2c(s1)CCO[C@@]21CCN(Cc2cn[nH]c2)[C@@H](C)C1` [Compound 265] and `CCc1cc2c(s1)CCO[C@@]21CCN(Cc2cn(Cc3cnn(C)c3)nn2)[C@@H](C)C1` [Compound 49] cannot be ordered by IC50: less than 100 nM for the first, less than 100 nM for the second.

Compared with `CCc1cc2c(s1)CCO[C@@]21CCN(Cc2cn(C3CN(S(=O)(=O)c4cn[nH]c4)C3)nn2)[C@@H](C)C1` [Compound 4], `CCc1cc2c(s1)CCO[C@@]21CCN(C[C@H]2C[C@@H](NC(=O)CCN3CCCC3=O)C2)[C@@H](C)C1` [Compound 366] is higher in IC50: less than 100 nM for the first, 100 to 500 nM for the second. The first is the more potent here.

Compared with `C[C@H]1C[C@@]2(CCN1C[C@@H](O)C(N)=O)OCCc1cc(Cl)sc12` [Compound 709, (2R)-3-[(2′S, 7R)-2-chloro-2′-methyl-spiro[4,5-dihydrothieno[2,3-c]pyran-7,4′-piperidine]-1′-yl]-2-hydroxy-propanamide], `C[C@H]1C[C@@]2(CCN1CC(O)c1ccccc1)OCCc1cc(CC(F)F)sc12` (stereo partly drawn) [Compound 594, 2-[(2′S, 7R)-2-(2,2-difluoroethyl)-2′-methyl-spiro[4,5-dihydrothieno[2,3-c]pyran-7,4′-piperidine]-1′-yl]-1-phenyl-ethanol] is lower in IC50: 100 to 500 nM for the first, less than 100 nM for the second.

First: CCc1cc2c(s1)CCO[C@@]21CCN(C[C@H]2C[C@@H](NC(=O)OCC3CCCCC3)C2)[C@@H](C)C1 [Compound 383]
Second: C[C@H]1C[C@@]2(CCN1C[C@H]1C[C@@H](NC(=O)C3CC3(F)F)C1)OCCc1cc(CC(F)F)sc12 (stereo partly drawn) [Compound 551]
The IC50 of the first is higher: 100 to 500 nM for the first, less than 100 nM for the second.

First: C[C@H]1C[C@@]2(CCN1C1CCCC1O)OCCc1cc(C(F)(F)F)sc12 (stereo partly drawn) [Compound 865, 2-[(2′S,7R)-2′-methyl-2-(trifluoromethyl)spiro[4,5-dihydrothieno[2,3-c]pyran-7,4′-piperidine]-1′-yl]cyclopentanol]
Second: C[C@H]1C[C@@]2(CCN1Cc1cnn(CCS(C)(=O)=O)c1)OCCc1c2sc(C(F)(F)F)c1CO [Compound 872, [(2′S,7R)-2′-methyl-1′-[[1-(2-methylsulfonylethyl)pyrazol-4-yl]methyl]-2-(trifluoromethyl)spiro[4,5-dihydrothieno[2,3-c]pyran-7,4′-piperidine]-3-yl]methanol]
The IC50 of the first is higher: 100 to 500 nM for the first, less than 100 nM for the second. The second is the more potent here.

First: CC1Cc2sc(Cl)cc2C2(CCN(Cc3cnn(C)c3)[C@@H](C)C2)O1 (single isomer, unassigned) [Compound 528, (2′S)-2-chloro-2′,6-dimethyl-1′-[(1-methylpyrazol-4-yl)methyl]spiro[6,7-dihydrothieno[3,2-c]pyran-4,4′-piperidine]]
Second: C[C@H]1C[C@@]2(CCN1Cc1cnn(C)c1)OCC(O)c1cc(Cl)sc12 (single isomer, unassigned) [Compound 820]
The IC50 of the first is higher: 100 to 500 nM for the first, less than 100 nM for the second.

`C[C@H]1C[C@@]2(CCN1Cc1cn(CCS(C)(=O)=O)nn1)OCC(F)c1cc(Cl)sc12` (stereo partly drawn) [Compound 863, (2S,4R)-2′-chloro-4′-fluoro-2-methyl-1-((1-(2-(methylsulfonyl)ethyl)-1H-1,2,3-triazol-4-yl)methyl)-4′,5′-dihydrospiro[piperidine-4,7′-thieno[2,3-c]pyran]] gave an IC50 of 100 to 500 nM.

From US20250171459A1, “2-METHYL-4',5'-DIHYDROSPIRO[PIPERIDINE-4,7'-THIENO[2,3-C]PYRAN] DERIVATIVES AS INHIBITORS OF APOL1 AND METHODS OF USING SAME” (Vertex Pharmaceuticals Incorporated, priority 2022, published 2025)
